In patent US9624169B2, “Aryl- and heteroaryl-pyrrolidine-2-carboxamide compounds” (SciFluor Life Sciences, Inc., priority 2015, dated 2017):

Tested on: formalin induced pain
Experiment: Formalin induced pain model in rats (flinching, lifting, licking, biting and trembling of injected paw)
Conditions: for Effect on the flinching response (in words): at tested dose levels; for Effect on duration of paw lifting post-formalin injection (in words): all dose levels; for Effect on all testing behaviors (lifting, licking, biting and trembling) post-formalin injection (in words): all tested dose levels
[1] = Phase 1, group 4, 3 mg/ml (Table 2: 3 mg/kg P.O.)
[2] = Phase 1, group 5, 10 mg/ml (Table 2: 10 mg/kg P.O.)
[3] = Phase 1, group 6, 30 mg/ml (Table 2: 30 mg/kg P.O.)
[4] = Phase 2, group 4, 3 mg/ml (Table 2: 3 mg/kg P.O.)
[5] = Phase 2, group 5, 10 mg/ml (Table 2: 10 mg/kg P.O.)
[6] = Phase 2, group 6, 30 mg/ml (Table 2: 30 mg/kg P.O.)
[7] = phase 1, control compounds, Compound 1A at 3 mg/kg
[8] = Phase 1, group 3, 100 mg/ml (Table 2: 100 mg/kg P.O.)
[9] = Phase 2, group 3, 100 mg/ml (Table 2: 100 mg/kg P.O.)
[10] = Phase 1, group 2, 1 mg/ml (Table 2: 1 mg/kg I.P.)
[11] = Phase 2, group 2, 1 mg/ml (Table 2: 1 mg/kg I.P.)

Compound: NC(=O)[C@@H]1CC[C@H](c2ccc(OC(c3ccccc3F)C(F)(F)F)cc2)N1 (stereo partly drawn) [Compound 1A, (2S,5R)-5-(4-(2,2,2-trifluoro-1-(2-fluorophenyl)ethoxy)phenyl)pyrrolidine-2-carboxamide]
- Group Mean of Average Duration of Licking, Biting and Trembling [1]: 34.2 ± 26.8 No. per 5 min
- Group Mean of Average Duration of Lifting [1]: 37.1 ± 43.8 No. per 5 min
- Group Mean of Average Flinching Response [1]: 15.2 ± 11.3 No. per 5 min
- Group Mean of Total Testing Behavior [1]: 71.3 ± 56.4 No. per 5 min
- Group Mean of Average Duration of Licking, Biting and Trembling [2]: 21.9 ± 25.1 No. per 5 min
- Group Mean of Average Duration of Lifting [2]: 17.3 ± 22.8 No. per 5 min
- Group Mean of Average Flinching Response [2]: 10.5 ± 3.7 No. per 5 min
- Group Mean of Total Testing Behavior [2]: 39.2 ± 27.5 No. per 5 min
- Group Mean of Average Duration of Licking, Biting and Trembling [3]: 17.4 ± 13.0 No. per 5 min
- Group Mean of Average Duration of Lifting [3]: 21.3 ± 25.2 No. per 5 min
- Group Mean of Average Flinching Response [3]: 22.0 ± 7.7 No. per 5 min
- Group Mean of Total Testing Behavior [3]: 38.7 ± 31.8 No. per 5 min
- Group Mean of Average Duration of Licking, Biting and Trembling [4]: 32.6 ± 27.6 No. per 5 min
- Group Mean of Average Duration of Lifting [4]: 8.2 ± 10.4 No. per 5 min
- Group Mean of Average Flinching Response [4]: 16.0 ± 10.2 No. per 5 min
- Group Mean of Total Testing Behavior [4]: 40.8 ± 34.3 No. per 5 min
- Group Mean of Average Duration of Licking, Biting and Trembling [5]: 20.7 ± 10.5 No. per 5 min
- Group Mean of Average Duration of Lifting [5]: 5.1 ± 6.2 No. per 5 min
- Group Mean of Average Flinching Response [5]: 16.6 ± 7.3 No. per 5 min
- Group Mean of Total Testing Behavior [5]: 25.8 ± 15.1 No. per 5 min
- Group Mean of Average Duration of Licking, Biting and Trembling [6]: 22.9 ± 14.5 No. per 5 min
- Group Mean of Average Duration of Lifting [6]: 6.1 ± 6.7 No. per 5 min
- Group Mean of Average Flinching Response [6]: 22.3 ± 12.5 No. per 5 min
- Group Mean of Total Testing Behavior [6]: 29.0 ± 16.4 No. per 5 min
- Effect on the flinching response (in words): no effect
- Effect on duration of paw lifting post-formalin injection (in words) (phase 1): no effects
- Effect on all testing behaviors (lifting, licking, biting and trembling) post-formalin injection (in words) (phase 1): no any effects
- Effect on duration of licking, biting and trembling post-formalin injection (in words) [7]: neither the control compounds (morphine and gabapentin) nor Compound 1A (at 3 mg/kg) had any effects
- Effect on duration of paw lifting post-formalin injection (in words) (phase 2): significant effect on inhibiting
- Effect on all testing behaviors (lifting, licking, biting and trembling) post-formalin injection (in words) (phase 2): significantly reduced
- Overall effect post formalin-induced pains (in words) (phase 2 observation period, especially at 10 mg/kg and 30 mg/kg): anti-nociceptive effects
- Activity in the formalin pain model (in words) (rat, in vivo): active

Compound: NCC1(CC(=O)O)CCCCC1 [Gabapentin, reference compound]
- Group Mean of Average Duration of Licking, Biting and Trembling [8]: 26.9 ± 14.7 No. per 5 min
- Group Mean of Average Duration of Lifting [8]: 39.8 ± 41.5 No. per 5 min
- Group Mean of Average Flinching Response [8]: 11.5 ± 5.7 No. per 5 min
- Group Mean of Total Testing Behavior [8]: 66.6 ± 34.8 No. per 5 min
- Group Mean of Average Duration of Licking, Biting and Trembling [9]: 17.1 ± 9.1 No. per 5 min
- Group Mean of Average Duration of Lifting [9]: 20.7 ± 23.2 No. per 5 min
- Group Mean of Average Flinching Response [9]: 16.0 ± 13.3 No. per 5 min
- Group Mean of Total Testing Behavior [9]: 37.8 ± 23.7 No. per 5 min
- Effect on the flinching response (in words): no effect
- Overall effect of control compounds on formalin induced pain model (in words) (control compounds): consistent effect of inhibiting nociceptive pain
- Effect on duration of paw lifting post-formalin injection (in words) (phase 1): no effects
- Effect on all testing behaviors (lifting, licking, biting and trembling) post-formalin injection (in words) (phase 1): no any effects
- Effect on duration of licking, biting and trembling post-formalin injection (in words) [7]: neither the control compounds (morphine and gabapentin) nor Compound 1A (at 3 mg/kg) had any effects
- Effect on duration of licking, biting and trembling post-formalin injection (in words) (phase 2, 100 mg/kg): significantly decreased
- Effect on duration of paw lifting post-formalin injection (in words) (phase 2): significant effect on inhibiting
- Effect on all testing behaviors (lifting, licking, biting and trembling) post-formalin injection (in words) (phase 2): significantly reduced

Compound: CN1CC[C@]23c4c5ccc(O)c4O[C@H]2[C@@H](O)C=C[C@H]3[C@H]1C5 [morphine, reference compound]
- Group Mean of Average Duration of Licking, Biting and Trembling [10]: 20.5 ± 13.1 No. per 5 min
- Group Mean of Average Duration of Lifting [10]: 37.8 ± 27.7 No. per 5 min
- Group Mean of Average Flinching Response [10]: 10.8 ± 7.7 No. per 5 min
- Group Mean of Total Testing Behavior [10]: 58.3 ± 37.7 No. per 5 min
- Group Mean of Average Duration of Licking, Biting and Trembling [11]: 12.1 ± 7.2 No. per 5 min
- Group Mean of Average Duration of Lifting [11]: 3.2 ± 4.4 No. per 5 min
- Group Mean of Average Flinching Response [11]: 12.3 ± 6.9 No. per 5 min
- Group Mean of Total Testing Behavior [11]: 15.3 ± 9.0 No. per 5 min
- Effect on the flinching response (in words): no effect
- Overall effect of control compounds on formalin induced pain model (in words) (control compounds): consistent effect of inhibiting nociceptive pain
- Effect on duration of paw lifting post-formalin injection (in words) (phase 1): no effects
- Effect on all testing behaviors (lifting, licking, biting and trembling) post-formalin injection (in words) (phase 1): no any effects
- Effect on duration of licking, biting and trembling post-formalin injection (in words) [7]: neither the control compounds (morphine and gabapentin) nor Compound 1A (at 3 mg/kg) had any effects
- Effect on duration of licking, biting and trembling post-formalin injection (in words) (phase 2, 1 mg/kg): significantly decreased
- Effect on duration of paw lifting post-formalin injection (in words) (phase 2): significant effect on inhibiting
- Effect on all testing behaviors (lifting, licking, biting and trembling) post-formalin injection (in words) (phase 2): significantly reduced
